Measurements taken from ChEMBL document CHEMBL4342480, “Design of Dual Inhibitors of Soluble Epoxide Hydrolase and LTA4 Hydrolase” (ACS Med Chem Lett, 2020).

Tests used:
Format in all cases: functional
[1] = system: Macrophage; test: Antiinflammatory activity in Escherichia coli O6:K2:H1-induced human M2 macrophage assessed as change in 17-HDHA level at 1 uM preincubated for 10 mins followed by Escherichia coli O6:K2:H1-stimulation and measured after 180 mins by UPLC-MS/MS analysis relative to control
[2] = system: Macrophage; test: Antiinflammatory activity in Escherichia coli O6:K2:H1-induced human M1 macrophage assessed as change in 12-HETE level at 1 uM preincubated for 10 mins followed by Escherichia coli O6:K2:H1-stimulation and measured after 180 mins by UPLC-MS/MS analysis relative to control
[3] = system: Macrophage; test: Antiinflammatory activity in Escherichia coli O6:K2:H1-induced human M1 macrophage assessed as change in […] level at 1 uM preincubated for 10 mins followed by Escherichia coli O6:K2:H1-stimulation and measured after 180 mins by UPLC-MS/MS analysis relative to control
[4] = system: Macrophage; test: Antiinflammatory activity in Escherichia coli O6:K2:H1-induced human M2 macrophage assessed as change in LTB4 level at 10 uM preincubated for 10 mins followed by Escherichia coli O6:K2:H1-stimulation and measured after 180 mins by UPLC-MS/MS analysis relative to control
[5] = system: Macrophage; test: Antiinflammatory activity in Escherichia coli O6:K2:H1-induced human M2 macrophage assessed as change in 17-HDHA level at 10 uM preincubated for 10 mins followed by Escherichia coli O6:K2:H1-stimulation and measured after 180 mins by UPLC-MS/MS analysis relative to control
[6] = system: Macrophage; test: Antiinflammatory activity in Escherichia coli O6:K2:H1-induced human M1 macrophage assessed as change in 7-HDHA level at 1 uM preincubated for 10 mins followed by Escherichia coli O6:K2:H1-stimulation and measured after 180 mins by UPLC-MS/MS analysis relative to control
[7] = system: Macrophage; test: Antiinflammatory activity in Escherichia coli O6:K2:H1-induced human M1 macrophage assessed as change in 18-HEPE level at 10 uM preincubated for 10 mins followed by Escherichia coli O6:K2:H1-stimulation and measured after 180 mins by UPLC-MS/MS analysis relative to control
[8] = system: Macrophage; test: Antiinflammatory activity in Escherichia coli O6:K2:H1-induced human M2 macrophage assessed as change in 12-HEPE level at 10 uM preincubated for 10 mins followed by Escherichia coli O6:K2:H1-stimulation and measured after 180 mins by UPLC-MS/MS analysis relative to control
[9] = system: Macrophage; test: Antiinflammatory activity in Escherichia coli O6:K2:H1-induced human M2 macrophage assessed as change in 12-HETE level at 1 uM preincubated for 10 mins followed by Escherichia coli O6:K2:H1-stimulation and measured after 180 mins by UPLC-MS/MS analysis relative to control
[10] = system: Macrophage; test: Antiinflammatory activity in Escherichia coli O6:K2:H1-induced human M2 macrophage assessed as change in PGF2alpha level at 10 uM preincubated for 10 mins followed by Escherichia coli O6:K2:H1-stimulation and measured after 180 mins by UPLC-MS/MS analysis relative to control
[11] = system: Macrophage; test: Antiinflammatory activity in Escherichia coli O6:K2:H1-induced human M2 macrophage assessed as change in 15-HEPE level at 1 uM preincubated for 10 mins followed by Escherichia coli O6:K2:H1-stimulation and measured after 180 mins by UPLC-MS/MS analysis relative to control
[12] = system: Macrophage; test: Antiinflammatory activity in Escherichia coli O6:K2:H1-induced human M2 macrophage assessed as change in 4-HDHA level at 1 uM preincubated for 10 mins followed by Escherichia coli O6:K2:H1-stimulation and measured after 180 mins by UPLC-MS/MS analysis relative to control
[13] = system: Macrophage; test: Antiinflammatory activity in Escherichia coli O6:K2:H1-induced human M2 macrophage assessed as change in 5.15-dlHETE level at 1 uM preincubated for 10 mins followed by Escherichia coli O6:K2:H1-stimulation and measured after 180 mins by UPLC-MS/MS analysis relative to control
[14] = system: Macrophage; test: Antiinflammatory activity in Escherichia coli O6:K2:H1-induced human M2 macrophage assessed as change in 15-HETE level at 1 uM preincubated for 10 mins followed by Escherichia coli O6:K2:H1-stimulation and measured after 180 mins by UPLC-MS/MS analysis relative to control
[15] = system: Macrophage; test: Antiinflammatory activity in Escherichia coli O6:K2:H1-induced human M2 macrophage assessed as change in PGD2 level at 10 uM preincubated for 10 mins followed by Escherichia coli O6:K2:H1-stimulation and measured after 180 mins by UPLC-MS/MS analysis relative to control
[16] = system: Macrophage; test: Antiinflammatory activity in Escherichia coli O6:K2:H1-induced human M1 macrophage assessed as change in 5-HEPE level at 1 uM preincubated for 10 mins followed by Escherichia coli O6:K2:H1-stimulation and measured after 180 mins by UPLC-MS/MS analysis relative to control
[17] = system: Macrophage; test: Antiinflammatory activity in Escherichia coli O6:K2:H1-induced human M2 macrophage assessed as change in 14-HDHA level at 1 uM preincubated for 10 mins followed by Escherichia coli O6:K2:H1-stimulation and measured after 180 mins by UPLC-MS/MS analysis relative to control
[18] = system: Macrophage; test: Antiinflammatory activity in Escherichia coli O6:K2:H1-induced human M2 macrophage assessed as change in PGE2 level at 1 uM preincubated for 10 mins followed by Escherichia coli O6:K2:H1-stimulation and measured after 180 mins by UPLC-MS/MS analysis relative to control
[19] = system: Macrophage; test: Antiinflammatory activity in Escherichia coli O6:K2:H1-induced human M1 macrophage assessed as change in 5.15-dlHETE level at 1 uM preincubated for 10 mins followed by Escherichia coli O6:K2:H1-stimulation and measured after 180 mins by UPLC-MS/MS analysis relative to control
[20] = system: Macrophage; test: Antiinflammatory activity in Escherichia coli O6:K2:H1-induced human M1 macrophage assessed as change in PGE2 level at 10 uM preincubated for 10 mins followed by Escherichia coli O6:K2:H1-stimulation and measured after 180 mins by UPLC-MS/MS analysis relative to control
[21] = system: Macrophage; test: Antiinflammatory activity in Escherichia coli O6:K2:H1-induced human M1 macrophage assessed as change in LTB4 level at 10 uM preincubated for 10 mins followed by Escherichia coli O6:K2:H1-stimulation and measured after 180 mins by UPLC-MS/MS analysis relative to control
[22] = system: Macrophage; test: Antiinflammatory activity in Escherichia coli O6:K2:H1-induced human M2 macrophage assessed as change in […] level at 1 uM preincubated for 10 mins followed by Escherichia coli O6:K2:H1-stimulation and measured after 180 mins by UPLC-MS/MS analysis relative to control
[23] = system: Macrophage; test: Antiinflammatory activity in Escherichia coli O6:K2:H1-induced human M2 macrophage assessed as change in 4-HDHA level at 10 uM preincubated for 10 mins followed by Escherichia coli O6:K2:H1-stimulation and measured after 180 mins by UPLC-MS/MS analysis relative to control
[24] = system: Macrophage; test: Antiinflammatory activity in Escherichia coli O6:K2:H1-induced human M2 macrophage assessed as change in 18-HEPE level at 1 uM preincubated for 10 mins followed by Escherichia coli O6:K2:H1-stimulation and measured after 180 mins by UPLC-MS/MS analysis relative to control

O=C(Cc1ccc(Oc2nc3ccccc3s2)cc1F)NCCc1ccc(F)cc1
Activity [1]: 106% | Activity [2]: 99% | Activity [3]: 134% | Activity [4]: 23% | Activity [5]: 135% | Activity [6]: 113% | Activity [7]: 73% | Activity [8]: 105% | Activity [9]: 87% | Activity [10]: 45% | Activity [11]: 81% | Activity [12]: 82% | Activity [13]: 93% | Activity [14]: 82% | Activity [15]: 64% | Activity [16]: 102% | Activity [17]: 103% | Activity [18]: 61% | Activity [19]: 152% | Activity [20]: 77% | Activity [21]: 11% | Activity [22]: 64% | Activity [23]: 78% | Activity [24]: 86%
